Results as given in US20100130598A1, “METHODS FOR INDUCING PROGRAMMED CELL DEATH” (Novogen Research Pty Ltd., priority 2008, published 2010).

Columns and labels:
HPAC cells [1] = assay: Western blot analysis of apoptosis regulatory proteins, p21 and p53, HPAC; format: cell-based, human; conditions: 10 μM
Text: (§1) Cells. Human pancreatic cell lines HPAC, MIAPaCa-2 and PANC-1 were obtained from the ATCC. (Manassas, Va.). The cells were maintained in DMEM media with Gln and high glucose (Mediatech, Manassas, Va.) with 10% fetal bovine serum (FBS, HyClone, Logan, Utah) and pencillin/streptomycin.
Antibodies. Antibodies utilised in this study specific to p53 and, p21 were obtained from (Calbiochem, EMD, San Diego, Calif.), Caspase 9, XIAP, COX IV, Bcl2 and Akt (Cell Signaling Technology, Danvers, Mass.), Caspase 2, Cytochrome c and Bid (BD Pharmingen, San Diego, Calif.). GAPDH (RDI, Concord, Mass.) or β-actin (Sigma, St. Louis, Mo.) was used as a housekeeping gene to standardize the protein loading on the gels and blots.
Western blot analysis. Cells were seeded on 100 mm tissue culture plates and grown overnight to ˜90% confluence. Cells were then treated with the drug combinations for indicated time points. After the final treatment step, the cells were lysed with 500 μL of a lysis buffer containing 1% Nonidet P-40, 0.1% SDS, 0.5% deoxycholate, 150 mM NaCl, 50 mM Tris-HCl pH7.5, 1 mM EDTA, 1 mM PMSF and protease inhibitors (Roche) on ice for 30 minutes. Cell lysates were harvested with a sterile cell scraper and centrifuged at 15,000×g for 15 minutes to remove cell debris. Protein was assayed by the BCA method (Pierce) and 50 μg aliquots were separated on 12%, T, 2.6%C SDS-PAGE gels. Proteins were electrophoretically transferred to PVDF membranes (Immobilon P, Millipore, Billerica, Mass.) by the wet transfer method. These membranes were probed with specific antibodies and with anti-GAPDH which was used as the housekeeping gene to standardize the protein loading. The blots were developed on X-ray films using HRP-conjugated secondary antibodies (Southern Biotech, Birmingham, Ala.) and a chemiluminescent substrate (ECL, Amersham, N.Y.).

HPAC cells [2] = assay: Cell cycle analysis by FACS (PI), HPAC; format: cell-based, human; conditions: 10 μM, accompanied with an arrest in G0/G1, transient
Method: as §1
FACS Analysis. Apoptosis was measured by FACS analysis using Annexin-V-FITC and propidium iodide (PI) (Biovision, Mountain View, Calif.) as probes (Ahn et al., 2003). Mitochondrial membrane potential was measured by FACS analysis using JC-1 (Biovision) as a probe (Ahn et al., 2003). Cell cycle was analyzed on ethanol-fixed, RNaseA-treated cells staining with PI. In each spectrum, 10,000 gated events were recorded and analyzed with a FACSCalibur (BD Biosciences. San Jose, Calif.). All experiments were done in triplicate, error bars represent one standard deviation. Caspase inhibitor I (zVAD-fmk) was obtained from Calbiochem.

MIAPaCa-2 = MIAPaCa-2 pancreatic cancer xenograft; format: in vivo, Balb/c nude mice; conditions: MIAPaCa-2 model
Method: For xenograft studies, five week old male Balb/c nude mice were maintained on an isoflavone-free diet to remove background isoflavone levels contributed by standard feed. On the day of inoculation a suspension of MIAPaCa2 or HPAC cells was prepared in DMEM (-FBS), chilled on ice and then an equal volume of matrigel (BD) was added. Mice were inoculated subcutaneously with 3×10^6 MIAPaCa2 or HPAC cells bilaterally (midway between the axillary and inguinal region) along the dorsal surface, ensuring that cells to be injected were growing at mid-end log phase. Tumor growth was monitored over 10-15 days. Compound 10 was given orally by gavage in 1% carboxy methyl cellulose (CMC) as a vehicle. Gemcitabine was injected intraperiponeally in PBS. In combination groups animals were first dosed with Compound 10 and then dosed with gemcitabine using the respective administration schedule, dosage and route of delivery stated.

XIAP = assay: Western blot of EOC whole cell lysates for XIAP; format: cell-based, human; conditions: EOC cells, 10 g/ml (as printed, FIG. 2 legend)
Text: Protein preparation and cellular fractionation. After drug treatment, protein was extracted and measured as previously described (Alvero et al, 2006). For separation of the cytoplasmic and mitochondrial fractions, cell pellets were processed using the ApoAlert™ Cell Fractionation Kit (BD Biosciences, San Jose, Calif.) according to the manufacturer's instructions. For separation of the cytoplasmic and nuclear fractions, pellets were processed using NE-PER Nuclear and Cytoplasmic Extraction (Pierce Biotechnology, Inc., Rockford, Ill.).
SDS-PAGE and Western blots. Cell lysates (20 μg protein) were denatured in sample buffer (2.5% SDS, 10% glycerol, 5% β-mercapto-ethanol, 0.15 M Tris (pH=6.8) and 0.01% bromophenol blue) and subjected to 12% SDS-PAGE as previously described (Kamsteeg et al, 2003). […]

8 phospho-proteins = assay: Analysis of phospho-proteins using xMAP technology (Beadlyte 8-plex); format: cell-based, human; conditions: EOC cells, 10 μg/ml
Text: Analysis of phoshpo-proteins using xMAP technology. After treatment, cells were lysed and lysates were used to measure the phosphorylation status of 8 proteins using the Beadlyte® 8-plex Multi-Pathway Signaling kit (Millipore, Billerica, Mass.) according to manufacturer's instructions. Data was acquired using the BioPlex System (BioRad, Hercules, Calif.).

| SMILES | expression of p53 (HPAC cells [1]; HPAC (wild type p53), by 48 hr) | Bid cleavage (HPAC cells [1]; HPAC) | Caspase 2 cleavage (HPAC cells [1]; HPAC) | cleavage of Caspase 3 (HPAC cells [1]; HPAC) | level of XIAP (HPAC cells [1]; HPAC) | levels of Bcl2 (HPAC cells [1]; HPAC) | p21 (HPAC cells [1]; HPAC) | total Akt (HPAC cells [1]; HPAC, early timepoint (4 hr)) | cleaved caspase 9 (17kd) (HPAC cells [1]; HPAC, time course 0-48 hrs) | G2/M arrest (HPAC cells [2]) | % T/C (mean terminal tumor burden) (MIAPaCa-2; Compound 10 100 mg/kg oral qd×12, gemcitabine 20 mg/kg q3d×4, alone or combined) [%] | rate of tumor proliferation (MIAPaCa-2; oral 100 mg/kg, qd×12, vs vehicle control, level similar to gemcitabine) | status of XIAP (XIAP) | ERK, pJNK, pSTAT5a/b, and pCREB (xMAP phospho-protein panel) (8 phospho-proteins) | p-S6k (xMAP phospho-protein panel) (8 phospho-proteins) | pIκB, pSTAT3, and p38 (xMAP phospho-protein panel) (8 phospho-proteins) |
| --- | --- | --- | --- | --- | --- | --- | --- | --- | --- | --- | --- | --- | --- | --- | --- | --- |
| COc1ccc(C2c3ccc(O)cc3OCC2c2ccc(O)cc2)cc1 (stereo not shown) [Compound 10, 3-(4-hydroxyphenyl)-4-(4-methoxyphenyl)chroman-7-ol] | elevated | transitory increase | cleaved to a lesser extent | did not cause significant cleavage | reduced | lowered | essentially unchanged | reduced | initial drop in cleaved caspase 9 (17kd) followed by an increase after 16 hr | less pronounced | 94 | retarded | – | – | – | – |
| COc1ccc(C2c3ccc(O)c(C)c3OCC2c2ccc(O)cc2)cc1 (stereo not shown) [Compound 1, 3-(4-hydroxyphenyl)-4-(4-methoxyphenyl)-8-methylchroman-7-ol] | – | – | – | – | – | – | – | – | – | – | – | – | no change | Up-regulation | down-regulates | minimal or no effect |
